Measured values from patent US12384753B2, “17-beta-hydroxysteroid dehydrogenase type 13 inhibitors and methods of use thereof” (Enanta Pharmaceuticals, Inc., priority 2021, dated 2025).

target: Recombinant human HSD17B13 (Homo sapiens (Human), UniProt Q7Z5P4); test: HSD17B13 rapid-fire mass spectrometry assay (RF/MS assay); format: biochemical; settings: inhibition of HSD17B13; LTB4 10 μM, NAD+ 0.5 mM, RT 3 h; IC50 ranges A-E
How it was run: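 Sf9-expressed human HSD17B13 (80 nM) with 10 μM LTB4 and 0.5 mM NAD+, incubated with compound (0–100 μM) for 3 h at RT in Tris pH 7.5/BSA/Tween-20. After formic acid quench, LTB4 conversion to 12-oxo-LTB4 measured by RapidFire MS/MS. IC50 from normalised residual activity, duplicates.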

Sequence of Recombinant human HSD17B13 (Q7Z5P4 20-300): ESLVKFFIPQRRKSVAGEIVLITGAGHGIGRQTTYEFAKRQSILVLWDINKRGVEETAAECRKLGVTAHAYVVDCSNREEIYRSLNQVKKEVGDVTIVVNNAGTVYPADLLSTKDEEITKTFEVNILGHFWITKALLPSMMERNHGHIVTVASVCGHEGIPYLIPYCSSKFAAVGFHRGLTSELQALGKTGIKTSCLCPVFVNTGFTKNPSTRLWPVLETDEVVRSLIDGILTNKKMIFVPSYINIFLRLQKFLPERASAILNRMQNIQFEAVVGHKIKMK

IC50 [nM]	Compound
< 100	COc1cc(C(=O)O)c(F)cc1NS(=O)(=O)c1coc(-c2ccc(C3=CCC4(CC3)OCCO4)cc2)n1 [Example 617]
100 to 500	COc1cc(C(=O)O)c(F)cc1NS(=O)(=O)c1csc(-c2ccc([C@H]3CC[C@@H](C(C)C)CC3)cc2C(F)(F)F)n1 [Example 619]
100 to 500	COc1cc(C(=O)O)c(F)cc1NS(=O)(=O)c1ncc(-c2ccc([C@H]3CC[C@H](C(F)(F)F)CC3)cc2)s1 [Example 621]
100 to 500	COc1cc(C(=O)O)c(F)cc1NS(=O)(=O)c1coc(-c2ccc([C@H]3CC[C@@H](O)CC3)cc2)n1 [Example 623]
< 100	COc1cc(C(=O)O)c(F)cc1NS(=O)(=O)c1cnc(-c2ccc([C@H]3CC[C@H](C)CC3)cc2)s1 [Example 627]
< 100	COc1cc(C(=O)O)c(F)cc1NS(=O)(=O)c1coc(-c2ccc(C3CCC(OC(=O)N4CCOCC4)CC3)cc2)n1 (centres unmarked) [Example 630]
< 100	COc1cc(C(=O)O)c(F)cc1NS(=O)(=O)c1csc(-c2ccc(NC3CCC(C)(C)CC3)cc2)n1 [Example 631]
100 to 500	CC[C@H]1CC[C@H](c2ccc(-c3nc4cc(S(=O)(=O)Nc5cc(F)c(C(=O)O)cc5OC)ccc4s3)cc2)CC1 [Example 632]
100 to 500	COc1cc(C(=O)O)c(F)cc1NS(=O)(=O)c1csc(-c2ccc(-c3csc4ccccc34)cc2)n1 [Example 636]
< 100	COc1cc(C(=O)O)c(F)cc1NS(=O)(=O)c1csc(-c2ccc(-c3ccc4ncccc4c3)cc2)n1 [Example 639]
100 to 500	CC[C@H]1CC[C@H](c2ccc(-c3ccnc(S(=O)(=O)Nc4cc(F)c(C(=O)O)cc4OC)c3)cc2)CC1 [Example 640]
100 to 500	COc1cc(C(=O)O)c(F)cc1NS(=O)(=O)c1csc(-c2ccc(-c3cnoc3)cc2)n1 [Example 651]
< 100	COc1cc(C(=O)O)c(F)cc1NS(=O)(=O)c1csc(-c2ccc(-c3ccc4c(c3)NCCO4)cc2)n1 [Example 653]
100 to 500	CC1(C)CCC(c2ccc(-c3nc(S(=O)(=O)Nc4ccc(C(=O)O)cc4)cs3)cc2)CC1 [Example 660]
100 to 500	COc1cc(C(=O)O)c(F)cc1NS(=O)(=O)c1ccc2nc(-c3ccc(C4CCCCC4)cc3)sc2c1 [Example 661]
100 to 500	COc1cc(C(=O)O)c(F)cc1NS(=O)(=O)c1ccc2sc(-c3ccc(C4CCC4)cc3)nc2c1 [Example 663]
100 to 500	COc1cc(C(=O)O)c(F)cc1NS(=O)(=O)c1ccc2sc(-c3ccc(-c4ccccc4)cc3)nc2c1 [Example 668]
100 to 500	CC[C@H]1CC[C@H](c2ccc(-c3nc4cc(S(=O)(=O)Nc5cc(F)c(C(=O)O)cc5OC)ccc4o3)cc2)CC1 [Example 670, 4-((2-(4-((1r,4r)-4-ethylcyclohexyl)phenyl)benzo[d]oxazole)-5-sulfonamido)-2-fluoro-5-methoxybenzoic acid]
< 100	COc1cc(C(=O)O)c(F)cc1NS(=O)(=O)c1coc(-c2ccc(C3=CCC(C)(C)CC3)cc2C(F)(F)F)n1 [Example 675]
< 100	COc1cc(C(=O)O)c(F)cc1NS(=O)(=O)c1coc(-c2ccc(C3=CCC(C(F)(F)F)CC3)cc2C(F)(F)F)n1 (centres unmarked) [Example 677]
< 100	COc1cc(C(=O)O)c(OC)cc1NS(=O)(=O)c1csc(-c2ccc(C3CCC(C)(C)CC3)cc2C(F)(F)F)n1 [Example 680]

Further lines, the molecule ahead of its results:

Compound	IC50 [nM]
COc1cc(C(=O)O)c(F)cc1NS(=O)(=O)c1ncc(-c2ccc(C3CCCCC3)cc2)s1 [Example 616]	100 to 500
COc1cc(C(=O)O)c(F)cc1NS(=O)(=O)c1coc(-c2ccc(C3CCC4(CC3)OCCO4)cc2)n1 [Example 618]	< 100
COc1cc(C(=O)O)c(F)cc1NS(=O)(=O)c1csc(-c2ccc([C@H]3CC[C@H](C(C)C)CC3)cc2C(F)(F)F)n1 [Example 620]	< 100
COc1cc(C(=O)O)c(F)cc1NS(=O)(=O)c1cc(-c2ccc(C3CCCCC3)cc2)ccn1 [Example 622]	500 to 1000
COc1cc(C(=O)O)c(F)cc1NS(=O)(=O)c1csc(-c2ccc(CC3CCCCC3)cc2)n1 [Example 624]	100 to 500
COc1cc(C(=O)O)c(F)cc1NS(=O)(=O)c1csc(-c2ccc(CCC(C)C)cc2)n1 [Example 625]	100 to 500
COc1cc(C(=O)O)c(F)cc1NS(=O)(=O)c1cnc(-c2ccc([C@H]3CC[C@@H](C)CC3)cc2)s1 [Example 626]	100 to 500
CCCCC[C@H]1CC[C@H](c2ccc(-c3ncc(S(=O)(=O)Nc4cc(F)c(C(=O)O)cc4OC)s3)cc2)CC1 [Example 628]	100 to 500
COc1cc(C(=O)O)c(F)cc1NS(=O)(=O)c1ccc2sc(-c3ccc(C4CCCCC4)cc3)nc2c1 [Example 629]	100 to 500
COc1cc(C(=O)O)c(F)cc1NS(=O)(=O)c1ncc(-c2ccc(C3=CCC(C(C)(C)C)CC3)cc2)s1 (centres unmarked) [Example 633]	100 to 500
COc1cc(C(=O)O)c(F)cc1NS(=O)(=O)c1csc(-c2ccc(-c3ccsc3)cc2)n1 [Example 634]	100 to 500
COc1cc(C(=O)O)c(F)cc1NS(=O)(=O)c1csc(-c2ccc(-c3ccccn3)cc2)n1 [Example 635]	100 to 500
COc1cc(C(=O)O)c(F)cc1NS(=O)(=O)c1csc(-c2ccc(-c3cc4ccccc4[nH]3)cc2)n1 [Example 637]	100 to 500
COc1cc(C(=O)O)c(F)cc1NS(=O)(=O)c1csc(-c2ccc(-c3ccc4[nH]ccc4c3)cc2)n1 [Example 638]	< 100
COc1cc(C(=O)O)c(F)cc1NS(=O)(=O)c1cc(-c2ccc([C@H]3CC[C@H](C(F)(F)F)CC3)cc2)ccn1 [Example 641]	100 to 500
CC[C@H]1CC[C@H](c2ccc(-c3ncc(S(=O)(=O)Nc4cc(F)c(C(=O)O)cc4OC)s3)cc2)CC1 [Example 642]	100 to 500
COc1cc(C(=O)O)c(F)cc1NS(=O)(=O)c1cnc(-c2ccc(C3CCC(c4ccccc4)CC3)cc2)s1 (centres unmarked) [Example 643]	100 to 500
COc1cc(C(=O)O)c(F)cc1NS(=O)(=O)c1csc(-c2ccc(-c3cn[nH]c3)cc2)n1 [Example 644]	100 to 500
COc1cc(C(=O)O)c(F)cc1NS(=O)(=O)c1csc(-c2ccc(-c3cccs3)cc2)n1 [Example 645]	100 to 500
COc1cc(C(=O)O)c(F)cc1NS(=O)(=O)c1csc(-c2ccc(-c3cc4ccccc4o3)cc2)n1 [Example 646]	< 100
COc1cc(C(=O)O)c(F)cc1NS(=O)(=O)c1csc(-c2ccc(-c3cccc4[nH]ccc34)cc2)n1 [Example 647]	< 100
CC[C@H]1CC[C@H](c2ccc(-c3nc(S(=O)(=O)Nc4ccc5c(O)cccc5c4OC)cs3)cc2)CC1 [Example 648]	1000 to 100000

Compound	IC50 [nM]
COc1c(NS(=O)(=O)c2csc(-c3ccc([C@H]4CC[C@H](C(F)(F)F)CC4)cc3)n2)ccc2c(O)cccc12 [Example 649]	1000 to 100000
COc1cc(C(=O)O)c(F)cc1NS(=O)(=O)c1ccc2sc(-c3ccc([C@H]4CC[C@H](C(F)(F)F)CC4)cc3)nc2c1 [Example 650]	100 to 500
COc1cc(C(=O)O)c(F)cc1NS(=O)(=O)c1csc(-c2ccc(-c3ccncc3)cc2)n1 [Example 652]	100 to 500
COc1cc(C(=O)O)c(F)cc1NS(=O)(=O)c1csc(-c2ccc(-c3ccc4cnccc4c3)cc2)n1 [Example 654]	100 to 500
COc1cc(C(=O)O)c(F)cc1NS(=O)(=O)c1csc(-c2ccc(-c3cncc(F)c3)cc2)n1 [Example 655]	100 to 500
COc1cc(C(=O)O)c(F)cc1NS(=O)(=O)c1cnn(-c2ccc(C3CCCCC3)cc2)c1 [Example 656]	100 to 500
CC[C@H]1CC[C@H](c2ccc(-c3nc4ccc(S(=O)(=O)Nc5cc(F)c(C(=O)O)cc5OC)cc4s3)cc2)CC1 [Example 658]	1000 to 100000
COc1cc(C(=O)O)c(F)cc1NS(=O)(=O)c1ccc2nc(-c3ccc([C@H]4CC[C@H](C(F)(F)F)CC4)cc3)sc2c1 [Example 659]	500 to 1000
COc1cc(C(=O)O)c(F)cc1NS(=O)(=O)c1ccc2sc(-c3ccc(C4CCCC4)cc3)nc2c1 [Example 662]	100 to 500
COc1cc(C(=O)O)c(F)cc1NS(=O)(=O)c1ccc2sc(-c3ccc(C4CCC(C)(C)CC4)cc3)nc2c1 [Example 664]	100 to 500
COc1cc(C(=O)O)c(F)cc1NS(=O)(=O)c1nc(-c2ccc(C3CCCCC3)cc2)sc1C [Example 665]	100 to 500
COc1cc(C(=O)O)c(F)cc1NS(=O)(=O)c1nc(-c2ccc(C3CCC(C)(C)CC3)cc2)sc1C [Example 666]	100 to 500
CC[C@H]1CC[C@H](c2ccc(-c3nc(S(=O)(=O)Nc4cc(F)c(C(=O)O)cc4OC)c(C)s3)cc2)CC1 [Example 667]	100 to 500
COc1cc(C(=O)O)c(F)cc1NS(=O)(=O)c1ccc2sc(-c3ccc(C4CC4)cc3)nc2c1 [Example 669]	100 to 500
COc1cc(C(=O)O)cc(F)c1NS(=O)(=O)c1csc(-c2ccc(C3CCC(C)(C)CC3)cc2C(F)(F)F)n1 [Example 671]	< 100
COc1cc(C(=O)O)c(F)cc1NS(=O)(=O)c1coc(-c2ccc(C3=CCC(C(C)C)CC3)cc2C(F)(F)F)n1 (centres unmarked) [Example 672]	< 100
COc1cc(C(=O)O)c(F)cc1NS(=O)(=O)c1coc(-c2ccc([C@H]3CC[C@@H](C(C)C)CC3)cc2C(F)(F)F)n1 [Example 673]	100 to 500
COc1cc(C(=O)O)c(F)cc1NS(=O)(=O)c1coc(-c2ccc([C@H]3CC[C@H](C(C)C)CC3)cc2C(F)(F)F)n1 [Example 674]	< 100
COc1cc(C(=O)O)c(F)cc1NS(=O)(=O)c1coc(-c2ccc(C3CCC(C)(C)CC3)cc2C(F)(F)F)n1 [Example 676]	< 100
COc1cc(C(=O)O)c(F)cc1NS(=O)(=O)c1coc(-c2ccc([C@H]3CC[C@@H](C(F)(F)F)CC3)cc2C(F)(F)F)n1 [Example 678]	< 100
COc1cc(C(=O)O)c(F)cc1NS(=O)(=O)c1coc(-c2ccc([C@H]3CC[C@H](C(F)(F)F)CC3)cc2C(F)(F)F)n1 [Example 679]	< 100
COc1cc(C(=O)O)c(-c2ccccc2)cc1NS(=O)(=O)c1csc(-c2ccc(C3CCC(C)(C)CC3)cc2C(F)(F)F)n1 [Example 681]	1000 to 100000
